This note sets out measurements from US7897732B2, “Antibodies to heparin-binding growth factor (HBGF) polypeptides” (Childrens Hospital Research Foundation, priority 1997, dated 2011).

The nature of test [1]: [3H]heparin binding of synthetic CTGF polypeptides on nitrocellulose dot-blot. As to conditions: 37.5 nmol polypeptide on nitrocellulose, 10 μCi/ml [3H]heparin, room temperature. The text has this:
Eighteen synthetic polypeptides spanning the entire 103 C-terminal residues of CTGF were synthesized and received as a cleaved PepSet™ from Chiron Mimotopes (Clayton, Victoria, Australia). All polypeptides were synthesized with acetylated N-termini and amidated C-termini except CTGF-(247-255) and CTGF-(247-260), which were synthesized with free N-terminal amines, and CTGF-(326-349) and CTGF-(339-349), which were synthesized with acid C-termini (Table 3).
All polypeptides contained one or no Cys residues; Cys^292 in CTGF(285-292) and Cys^325 in CTGF-(318-328) were replaced with Ser to prevent intra-chain disulfide bridging to Cys^287 or Cys^323 within the respective polypeptides. Heparin-binding properties were determined using an adaptation of the method of Baird et al. (Baird, A., et al. Proc. Natl. Acad. Sci. U.S.A. 85, 2324-2328(1988)). Briefly, 37.5 nmol of each polypeptide were absorbed in duplicate to nitrocellulose using a dot-blot apparatus. The blot was blocked for 30 min. with 10 mM Tris-HCl, 0.15 M NaCl, 0.1% bovine serum albunin (pH 7.4) and then incubated for 3 hr. at room temperature in this solution containing 10 μCi/ml [^3H]heparin (NEN Life Science Products). The blot was washed four times with 10 mM Tris-HCl, 0.15 M NaCl, and individual dots were mixed with scintillation fluid for counting of [^3H].

Test [2] has as its system bovine capillary endothelial cells (BCECs). The test can be described thus: BCEC DNA synthesis assay. It counts as cell-based. The procedure: (§1) Target cell specificity was studied using Balb/c 3T3 cells, bovine capillary endothelial cells (BCECs), and vascular smooth muscle cells. 3T3 cells were utilized as described above. BCECs were obtained from Dr. J. Folkman (Children's Hospital, Boston, Mass.) and were maintained in gelatinized culture flasks in Dulbecco's modified Eagle's medium containing 3 ng/ml bFGF and 10% heat-inactivated bovine calf serum. Smooth muscle cells were isolated from a 2-3-cm length of pig thoracic aorta using established procedures (Weich, H. A., et al., Growth Factors 2, 313-320 (1990)) and maintained in 10% Dulbecco's modified Eagle's medium, 10% fetal bovine serum. BCEC and smooth muscle cell DNA synthesis assays were performed in 48- or 96-well plates essentially as described (Besner, G. E., Higashiyama, S., and Kagsbrun, M. Cell Regul. 1, 811-819 (1990)). BCEC DNA synthesis assays were also performed in the presence of 100 μg/ml porcine heparin.

For test [3], the system named is Vascular smooth muscle cells. The test can be described thus: Smooth muscle cell DNA synthesis assay. It counts as cell-based, pig. The settings on record: 3 ng/ml. The procedure: as §1
The next test relates to Balb/c 3T3 fibroblasts. The test can be described thus: DNA synthesis ([3H]thymidine incorporation) assay in confluent quiescent Balb/c 3T3 cells. It is filed as cell-based. The settings on record: for [3H]Thymidine incorporation (mean ± S.D.): Balb/c 3T3 fibroblasts. The method, then: To assess the relative mitogenic capability of HBGFs with IGF-1, EGF, bFGF, and PDGF-AB, DNA synthesis assays on 3T3 cells were performed (Table 4). Biologically active fractions containing the 0.3-0.6 M NaCl eluate from the Bio-Rex column were pooled, diluted 3-fold with 20 mM Tris-HCL (pH 7.4) containing 0.1% CHAPS, passed through a 0.45-μm membrane filter, placed in a siliconized polypropylene vessel, and applied with a peristaltic pump to an EconoPac heparin column (0.7×3.6 cm; Bio-Rad) at 2 ml/min. The heparin column was then washed with 50 ml of 20 mM Tris-HCl buffer, 0.2 M NaCl, 0.1% CHAPS and developed at 1 ml/min with a 40 ml gradient of 0.1-2.0 M NaCl in 20 mM Tris-HCl, 0.1% CHAPS (pH 7.4) using a fast protein liquid chromatography (FPLC) system (Pharmacia Biotech Inc.). Fractions (1 ml) were collected into siliconized tubes during NaCl gradient elution and tested for 3T3 cell mitogenic activity. Column fractions were tested for their ability to stimulate DNA synthesis as measured by [^3H]thymidine incorporation into the DNA of confluent quiescent Balb/c 3T3 cells grown in 200 μl of Dulbecco's modified Eagle's medium, 10% bovine calf serum in 96-well culture plates as described (Kim, G. Y., et al., Biol. Reprod. 52, 561-571 (1995)). Dose-response curves to purified growth factors from ULF were established by assaying each dose in triplicate, with data computed as mean±S.D. Statistical significance of the effects of 1-100 μg/ml porcine heparin (Sigma) on growth factor activity was determined by Students' t test.

ACHYN [CTGF-(324-328)]: the “[3H]Heparin bound (mean ± S.D.)” value in test [1] is given as 9 ± 1 cpm/μg.

Take “CTPHRTTTLPVEFK (Ac-CTPHRTTTLPVEFK-NH2) [CTGF-(293-306)]”: the “[3H]Heparin bound (mean ± S.D.)” value in test [1] is 9 ± 1.1 cpm/μg.

For the substance EENIKKGKK [CTGF-(247-255)], the “[3H]Heparin bound (mean ± S.D.)” value in test [1] was 10 ± 0.3 cpm/μg. With EENIKKGKKCIRTP [CTGF-(247-260)], in test [1], the “[3H]Heparin bound (mean ± S.D.)” value was 836 ± 1 cpm/μg. For the substance “FKCPDGEVMKKNMMFIKT (Ac-FKCPDGEVMKKNMMFIKT-NH2) [CTGF-(305-322)]”, the “[3H]Heparin bound (mean ± S.D.)” value in test [1] amounted to 237 ± 22 cpm/μg. The same measure, in the same setting: then “GVCTDGR (Ac-GVCTDGR-NH2) [CTGF-(285-291)]”, with 7 ± 0.3 cpm/μg; and “GVCTDGRS (Ac-GVCTDGRS-NH2) [Ser^292 CTGF-(285-292)]”, with 8 ± 0.4 cpm/μg. With “HYNCPGDNDIFESLYYRKMYGDMA (Ac-HYNCPGDNDIFESLYYRKMYGDMA-OH) [CTGF-(326-349)]”, the “[3H]Heparin bound (mean ± S.D.)” value in test [1] was found to be 10 ± 1 cpm/μg. Still for that read-out and setting: the result for “IRTPKISKPIKFELSG (Ac-IRTPKISKPIKFELSG-NH2) [CTGF-(257-272)]” reads 70 ± 13 cpm/μg; that for “LYYRKMYGDMA (Ac-LYYRKMYGDMA-OH) [CTGF-(339-349)]”, 9 ± 0.5 cpm/μg; that for “MFIKTCA (Ac-MFIKTCA-NH2) [CTGF-(318-324)]”, 475 ± 116 cpm/μg. The same measure, in the same setting: then “MFIKTCASHYN (Ac-MFIKTCASHYN-NH2) [Ser^325 CTGF-(318-328)]”, with 601 ± 40 cpm/μg; and “PDGEVMKKNMMFIKT (Ac-PDGEVMKKNMMFIKT-NH2) [CTGF-(308-322)]”, with 71 ± 2 cpm/μg.

For the substance “PGDNDIFESLY (Ac-PGDNDIFESLY-NH2) [CTGF-(330-340)]”, the “[3H]Heparin bound (mean ± S.D.)” value in test [1] is recorded as 10 ± 0.5 cpm/μg.

With “TPHRTTTLPVEFK (Ac-TPHRTTTLPVEFK-NH2) [CTGF-(294-306)]”, in test [1], the “[3H]Heparin bound (mean ± S.D.)” value amounted to 11 ± 0.4 cpm/μg. On the same count and under the same terms, then “TPKISKPIKFELSGCTS (Ac-TPKISKPIKFELSGCTS-NH2) [CTGF-(259-275)]”, with 124 ± 3 cpm/μg.

Regarding “TSMKTYRAKF (Ac-TSMKTYRAKF-NH2) [CTGF-(274-283)]”, the “[3H]Heparin bound (mean ± S.D.)” value in test [1] was determined as 388 ± 12 cpm/μg.

Consider “TSMKTYRAKFCGV (Ac-TSMKTYRAKFCGV-NH2) [CTGF-(274-286)]”, for which, in test [1], the “[3H]Heparin bound (mean ± S.D.)” value is 1108 ± 119 cpm/μg. Turning to aFGF: acidic fibroblast growth factor, the figures for the “[3H]Thymidine incorporation (mean ± S.D.)” value (from here on “[3H]Thymidine incorporation”) in test [2] (3 ng/ml) and in test [2] (3 ng/ml + 100 μg/ml heparin) were 603 ± 46 Cpm/well and 2,232 ± 236 Cpm/well, respectively. Turning to basic fibroblast growth factor [bFGF], the “[3H]Thymidine incorporation” value is 3,082 ± 374 Cpm/well in test [3], 2,865 ± 276 Cpm/well in test [2] (3 ng/ml), 1,840 ± 4 Cpm/well in test [2] (3 ng/ml + 100 μg/ml heparin) and 73,853 ± 3,122 Cpm/well with Balb/c 3T3 fibroblasts (10 ng/ml). Consider “epidermal growth factor [EGF, reference compound]”, for which the “[3H]Thymidine incorporation” value was 1,343 ± 378 Cpm/well in test [3] and 11,550 ± 101 Cpm/well with Balb/c 3T3 fibroblasts (30 ng/ml). On to heparin [reference compound], for which the “[3H]Thymidine incorporation” value in test [2] (100 μg/ml) was found to be 240 ± 52 Cpm/well. Further, in the test with Balb/c 3T3 fibroblasts (1-100 μg/ml heparin), the “Effect on basal or calf serum-stimulated DNA synthesis in 3T3 cells” value is “no effect”. In the case of “insulin-like growth factor [IGF-1, reference compound]”, in the test with Balb/c 3T3 fibroblasts (30 ng/ml), the “[3H]Thymidine incorporation” value is on record as 4,412 ± 170 Cpm/well. “platelet-derived growth factor [PDGF-AB, reference compound]”: in the test with Balb/c 3T3 fibroblasts (30 ng/ml), the “[3H]Thymidine incorporation” value was 110,110 ± 7,077 Cpm/well.
